From patent US20240262842A1, “SMALL MOLECULE INHIBITORS OF KRAS G12C MUTANT” (Merck Sharp & Dohme LLC, priority 2021, published 2024)
Read-outs that look alike come from different tables or passages of the source.

Legend:
MIA PaCa-2 cells = experiment: Growth inhibition activity on KRAS-G12C mutant cell line (CellTiter-Glo 3D); format: cell-based, human; settings: MIA PaCa-2, 3-day culture with compound; Table 3
Description: MIA PaCa-2 cells (given by Sumitomo Dainippon Pharma Co., Ltd.), which are a KRAS-G12C mutant human pancreas cancer cell line, were suspended in a 10% fetal bovine serum-containing RPMI1640 medium (manufactured by Fujifilm Wako Pure Chemical Corporation). The cell suspension was seeded into each well of a 384-well U bottom microplate and cultured in an incubator containing 5% CO2 gas at 37° C. for 1 day. The compounds obtained in the “Preparation of Compounds” section were used as test compounds and were dissolved in DMSO, respectively, and each test compound was diluted with DMSO to give a concentration 500 times the final concentration. The resultant solution of the test compound in DMSO was diluted with the medium used for suspending cells and added to each well of the cell-culture plate to give a DMSO final concentration of 0.2%, followed by culture in an incubator containing 5% CO2 gas at 37° C. for another 3 days. The cell count after 3-day culture in the presence of the test compound was measured using CellTiter-Glo 3D Reagent (manufactured by Promega Corporation). All wells were added with CellTiter-Glo 3D Reagent and mixed for 10 minutes. 30 minutes after mixing, luminescence was measured by a plate reader. The growth inhibition rate was calculated from the following equation, and the concentration of the test compound at which 50% inhibition was achieved (IC50 (nM)) was determined.
[formula] • T: the emission intensity in a well into which a test compound was added. • C: the emission intensity in a well into which a test compound was not added.

[1] = biological target: T1, interaction between GMPPNP-bound recombinant K-Ras4B G12C mutant protein and cRAF RAS-binding domain (cRAF-RBD) (Homo sapiens, UniProt P01116, G12C); experiment: Inhibitory activity on interaction between KRAS G12C and cRAF (Alpha technology); settings: Table 2
T1 construct: His-tag (N)
Description: Interaction between recombinant K-Ras4B G12C mutant protein (amino acids 1-169, SEQ ID NO:2) and cRAF RAS-binding domain (cRAF-RBD, amino acids 50-132, Jena Biosciences GmbH) was measured using Alpha technology (PerkinElmer Inc.).
Recombinant KRAS G12C protein with an N-terminal His-tag was expressed in E. coli and purified by affinity chromatography. To prepare GTP-bound form and GDP-bound form of KRAS G12C protein, 50 μM KRAS G12C protein was incubated with 1 mM GMPPNP (Guanosine-5′-[(β,γ)-imido]triphosphate, Tetralithium salt) (Jena Bioscience GmbH) and 1 mM GDP, respectively, in a loading buffer (20 mM Tris-HCl (pH 7.5), 50 mM NaCl, 1 mM DTT and 2.5 mM EDTA) for 1 hour on ice. After the incubation, MgCl2 was added to a final concentration of 10 mM, followed by incubation at room temperature for 30 minutes. The mixture was allowed to pass through a NAP-5 column to remove free nucleotides and purified, and the resultant nucleotide-bound KRAS G12C protein was used for compound evaluation.
For the measurement of the inhibitory activity of compounds on interaction between KRAS G12C and cRAF-RBD, GMPPNP-bound KRAS G12C protein was incubated with various concentrations of compound in a reaction buffer (20 mM Tris-HCl (pH 7.5), 100 mM NaCl, 1 mM MgCl2, 1 mM TCEP, 0.1% Tween 20) at 25° C. for 1 hour. After the incubation, recombinant cRAF-RBD and Alpha detection reagents were added and incubated at room temperature for 1.5 hours for binding. Interaction of KRAS G12C and cRAF-RBD was monitored by measuring Alpha signal. Inhibition % was calculated using the signal from the reaction without test compound (DMSO control) as 0% inhibition and the signal from the reaction using GDP-bound KRAS G12C in place of GMPPNP-bound KRAS G12C as 100% inhibition. IC50 values were calculated from dose titration curve using curve fitting by XLfit software (IDBS).

[2] = IC50, GMPPNP-bound KRAS G12C incubated with compound 25° C. 1 hour
[3] = GMPPNP-bound KRAS G12C incubated with compound 25° C. 1 hour, read-out: IC50

T1 sequence (P01116 with tags, fused parts or gaps isoform P01116-2 G12C): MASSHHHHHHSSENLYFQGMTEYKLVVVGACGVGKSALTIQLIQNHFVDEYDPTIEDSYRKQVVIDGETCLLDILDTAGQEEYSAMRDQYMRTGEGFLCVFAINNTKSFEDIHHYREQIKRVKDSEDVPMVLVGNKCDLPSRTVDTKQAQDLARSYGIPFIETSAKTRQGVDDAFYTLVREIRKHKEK

Row | Structure (SMILES) | IC50 (MIA PaCa-2 cells) | IC50 [1, 2] | IC50 [1, 3]
1 | CO[C@H]1CC[C@H](NC/C=C/C(=O)Nc2c(F)cc(C(=O)c3cn4c5c(cccc35)-c3c(cccc3C(F)(F)F)OCC4)cc2F)CC1 (single isomer, unassigned) [Example 11-1] | 7.8 µM | > 6.7 µM | 
2 | CO[C@H]1CC[C@H](NC/C=C/C(=O)Nc2c(F)cc(C(=O)c3cn4c5c(cccc35)-c3c(cccc3C(F)(F)F)OCC4)cc2F)CC1 (single isomer, unassigned) [Example 11-2] | 0.091 µM | 0.077 µM | 
3 | CO[C@H]1CC[C@H](NC/C=C/C(=O)Nc2c(F)cc(C(=O)c3cn4c5c(cccc35)-c3c(C(F)(F)F)cc5c(nc(C)n5C)c3OCC4)cc2F)CC1 (single isomer, unassigned) [Example 12-1, (E)-N-(4-(8,9-dimethyl-6-(trifluoromethyl)-12,13-dihydro-8H-imidazo[4″,5″:3′,4′]benzol[1′,2′:7,8][1,4]oxazocino[6,5,4-hi]indole-2-carbonyl)-2,6-difluorophenyl)-4-(((1r,4r)-4-methoxycyclohexyl)amino)but-2-enamide] | 0.001 µM | 0.005 µM | 
4 | CO[C@H]1CC[C@H](NC/C=C/C(=O)Nc2c(F)cc(C(=O)c3cn4c5c(cccc35)-c3c(C(F)(F)F)cc5c(nc(C)n5C)c3OCC4)cc2F)CC1 (single isomer, unassigned) [Example 12-2, (E)-N-(4-(8,9-dimethyl-6-(trifluoromethyl)-12,13-dihydro-8H-imidazo[4″,5″:3′,4′]benzol[1′,2′:7,8][1,4]oxazocino[6,5,4-hi]indole-2-carbonyl)-2,6-difluorophenyl)-4-(((1r,4r)-4-methoxycyclohexyl)amino)but-2-enamide] | 1.6 µM | > 6.7 µM | 
5 | CO[C@H]1CC[C@H](NC/C=C/C(=O)Nc2c(F)cc(C(=O)c3cn4c5c(cccc35)-c3c(C)cc5c(nc(C)n5C)c3OCC4)cc2F)CC1 (single isomer, unassigned) [Example 14-1, (E)-N-(2,6-difluoro-4-(6,8,9-trimethyl-12,13-dihydro-8H-imidazo[4″,5″:3′,4′]benzo[1′,2′:7,8][1,4]oxazocino[6,5,4-hi]indole-2-carbonyl)phenyl)-4-(((11,4r)-4-methoxycyclohexyl)amino)but-2-enamide] | 0.017 µM | 0.009 µM | 
6 | CO[C@H]1CC[C@H](NC/C=C/C(=O)Nc2c(F)cc(C(=O)c3cn4c5c(cccc35)-c3c(C)cc5c(nc(C)n5C)c3OCC4)cc2F)CC1 (single isomer, unassigned) [Example 14-2, (E)-N-(2,6-difluoro-4-(6,8,9-trimethyl-12,13-dihydro-8H-imidazo[4″,5″:3′,4′]benzo[1′,2′:7,8][1,4]oxazocino[6,5,4-hi]indole-2-carbonyl)phenyl)-4-(((11,4r)-4-methoxycyclohexyl)amino)but-2-enamide] | 3.7 µM | > 6.7 µM | 
7 | CO[C@H]1CC[C@H](NC/C=C/C(=O)Nc2c(F)cc(C(=O)c3cn4c5c(cccc35)-c3c(C)cc5c(nc(C)n5C)c3OCCC4)cc2F)CC1 (single isomer, unassigned) [Example 15-1, (E)-N-(2,6-difluoro-4-(6,8,9-trimethyl-13,14-dihydro-8H,12H-imidazo[4″,5″:3′,4′]benzo[1′,2″:8,9][1,5]oxazonino[7,6,5-hi]indole-2-carbonyl)phenyl)-4-(((1r,4r)-4-methoxycyclohexyl)amino)but-2-enamide] | 2.7 µM | 3.9 µM | 
8 | CO[C@H]1CC[C@H](NC/C=C/C(=O)Nc2c(F)cc(C(=O)c3cn4c5c(cccc35)-c3c(C)cc5c(nc(C)n5C)c3OCCC4)cc2F)CC1 (single isomer, unassigned) [Example 15-2, (E)-N-(2,6-difluoro-4-(6,8,9-trimethyl-13,14-dihydro-8H,12H-imidazo[4″,5″:3′,4′]benzo[1′,2″:8,9][1,5]oxazonino[7,6,5-hi]indole-2-carbonyl)phenyl)-4-(((1r,4r)-4-methoxycyclohexyl)amino)but-2-enamide] | 0.027 µM | 0.035 µM | 
9 | CO[C@H]1CC[C@H](NC/C=C/C(=O)Nc2c(F)cc(C(=O)c3cn4c5c(cccc35)-c3c(C)cc5c(nc(C)n5C)c3OCC3(CC3)C4)cc2F)CC1 (single isomer, unassigned) [Example 21-1, (E)-N-(2,6-difluoro-4-(6′,8′,9′-trimethyl-8′H, 12′H,14′H-spiro[cyclopropane-1,13-imidazo[4″,5″:3′,4′]benzo[1′,2:8,9][1,5]oxazonino[7,6,5-hi]indole]-2′-carbonyl)phenyl)-4-(((1r,4t)-4-methoxycyclohexyl)amino)but-2-enamide] | 0.022 µM | 0.044 µM | 
10 | CO[C@H]1CC[C@H](NC/C=C/C(=O)Nc2c(F)cc(C(=O)c3cn4c5c(cccc35)-c3c(C)cc5c(nc(C)n5C)c3OCC3(CC3)C4)cc2F)CC1 (single isomer, unassigned) [Example 21-2, (E)-N-(2,6-difluoro-4-(6′,8′,9′-trimethyl-8′H, 12′H,14′H-spiro[cyclopropane-1,13-imidazo[4″,5″:3′,4′]benzo[1′,2:8,9][1,5]oxazonino[7,6,5-hi]indole]-2′-carbonyl)phenyl)-4-(((1r,4t)-4-methoxycyclohexyl)amino)but-2-enamide] | 1.5 µM | 2.8 µM | 
11 | CO[C@H]1CC[C@H](NC/C=C/C(=O)Nc2c(F)cc(C(=O)c3cn4c5c(cccc35)-c3c(C)cc5c(nc(C)n5C)c3OC[C@H](C)C4)cc2F)CC1 (single isomer, unassigned) [Example 23] | 0.013 µM | 0.019 µM | 
12 | CO[C@H]1CC[C@H](NC/C=C/C(=O)Nc2c(F)cc(C(=O)c3cn4c5c(cccc35)-c3c(C)cc5c(nc(C)n5C)c3OC[C@H](C)C4)cc2F)CC1 (single isomer, unassigned) [Example 24] | 1.1 µM | 1.8 µM | 
13 | CO[C@H]1CC[C@H](NC/C=C/C(=O)Nc2c(F)cc(C(=O)c3cc4c5c(cccn35)-c3c(C(F)(F)F)cc5c(nc(C)n5C)c3OCC4)cc2F)CC1 (single isomer, unassigned) [Example 30-1, (E)-N-(4-(9,10-dimethyl-7-(trifluoromethyl)-13,14-dihydro-9H-imidazo[4″,5″:5′,6′]benzo[1′,2′:2,3]oxocino[4,5,6-hi]indolizine-2-carbonyl)-2,6-difluorophenyl)-4-(((1r,4r)-4-methoxycyclohexyl)amino)but-2-enamide] | 0.003 µM |  | 0.007 µM
14 | CO[C@H]1CC[C@H](NC/C=C/C(=O)Nc2c(F)cc(C(=O)c3cc4c5c(cccn35)-c3c(C(F)(F)F)cc5c(nc(C)n5C)c3OCC4)cc2F)CC1 (single isomer, unassigned) [Example 30-2, (E)-N-(4-(9,10-dimethyl-7-(trifluoromethyl)-13,14-dihydro-9H-imidazo[4″,5″:5′,6′]benzo[1′,2′:2,3]oxocino[4,5,6-hi]indolizine-2-carbonyl)-2,6-difluorophenyl)-4-(((1r,4r)-4-methoxycyclohexyl)amino)but-2-enamide] | 1.6 µM |  | 6 µM
15 | Cc1nc2c3c(c(C(F)(F)F)cc2n1C)-c1cccn2c(C(=O)c4cc(F)c(NC(=O)/C=C/CNC5(C)COC5)c(F)c4)cc(c12)CCO3 (single isomer, unassigned) [Example 31-1, (E)-N-(4-(9,10-dimethyl-7-(trifluoromethyl)-13,14-dihydro-9H-imidazo[4″,5″:5′,6′]benzo[1′,2′:2,3]oxocino[4,5,6-hi]indolizine-2-carbonyl)-2,6-difluorophenyl)-4-((3-methyloxetan-3-yl)amino)but-2-enamide] | 0.007 µM |  | 0.011 µM
